Source: patent US20240262815A1, “HETEROARYL DERIVATIVE, METHOD FOR PREPARING SAME, AND PHARMACEUTICAL COMPOSITION COMPRISING SAME AS ACTIVE INGREDIENT” (VORONOI INC., priority 2021, published 2024)

What was measured:
BT-474 cancer cells = test: Inhibitory activity against proliferation of BT-474 cancer cells (CellTiter-Glo); type: cell-based; conditions: Homo sapiens, BT-474 ErbB2-overexpressing cancer cells, 120 hours after treatment
Summary of the method: (§1)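 GI50 derived from % growth relative to control, measured by CellTiter-Glo luminescence after 120 h compound exposure (12 concentrations, 0.2 nM-5 μM final, n=3). BT-474 grown in RPMI-1640/20% FBS, SK-BR-3 in McCOY'S 5A/10% FBS; seeding 48 h pre-treatment.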

SK-BR-3 cancer cells = test: Inhibitory activity against proliferation of SK-BR-3 cancer cells (CellTiter-Glo); type: cell-based; conditions: Homo sapiens, SK-BR-3, 120 h, ErbB2-overexpressing SK-BR-3 cells, 120 hours after treatment
Summary of the method: as §1

Structure (SMILES)	GI50 (BT-474 cancer cells) [nM]	GI50 (SK-BR-3 cancer cells) [nM]
C=CC(=O)Nc1cc(Nc2cc(N3OCC[C@@H]3c3cccc(-c4cccc(C(F)(F)F)c4F)c3)ncn2)c(OC)cc1N1CCN(C)CC1 [Example 282, (R)-N-(5-((6-(3-(2′-fluoro-3′-(tri-fluoromethyl)-[1,1′-biphenyl]-3-yl)isoxazolidin-2-yl)pyrimidin-4-yl)-amino)-4-methoxy-2-(4-methylpiper-azin-1-yl)phenyl)-acrylamide]	< 50	50 to 500
C=CC(=O)Nc1cc(Nc2cc(N3OCC[C@@H]3c3cc(F)cc(Oc4cccc(F)c4)c3)ncn2)c(OC)cc1N1CCN(C)[C@@H](C)C1 [Example 223, N-(2-((S)-3,4-dimethylpiperazin-1-yl)-5-((6-((R)-3-(3-fluoro-5-(3-fluorophenoxy)-phenyl)isoxazol-idin-2-yl)pyrim-idin-4-yl)amino)-4-methoxyphen-yl)acrylamide]	< 50	< 50
C=CC(=O)Nc1cc(Nc2cc(N3OCCC3c3ccc(Cl)c(OCc4cccc(F)c4)c3)ncn2)c(OC)cc1N1CCC(N2CCN(C3CC3)CC2)CC1 (stereo not shown) [Example compound 116, N-(5-((6-(3-(4-chloro-3-((3-fluorobenzyl)oxy)phenyl)isoxazolidin-2-yl)pyrimidin-4-yl)amino)-2-(4-(4-cyclopropylpiperazin-1-yl)piperidin-1-yl)-4-methoxyphenyl)acrylamide]	50 to 500	< 50
C=CC(=O)Nc1cc(Nc2cc(N3OCCC3c3cccc(OCc4ccccn4)c3)ncn2)c(OC)cc1N1CCC(N2CCN(C3CC3)CC2)CC1 (stereo not shown) [Example compound 98, N-(2-(4-(4-cyclopropylpiperazin-1-yl)piperidin-1-yl)-4-methoxy-5-((6-(3-(3-(pyridin-2-ylmethoxy)phenyl)isoxazolidin-2-yl)pyrimidin-4-yl)amino)phenyl)acrylamide]	< 50	< 50
C=CC(=O)Nc1cc(Nc2cc(N3OCCC3c3ccc(F)c(OCc4cccc(F)c4)c3)ncn2)c(OC)cc1N1CCC(N2CCN(C3CC3)CC2)CC1 (stereo not shown) [Example compound 150, N-(2-(4-(4-cyclopropylpiperazin-1-yl)piperidin-1-yl)-5-((6-(3-(4-fluoro-3-((3-fluorobenzyl)oxy)phenyl)isoxazolidin-2-yl)pyrimidin-4-yl)amino)-4-methoxyphenyl)acrylamide]	< 50	< 50

Continued, values first:

GI50 (BT-474 cancer cells) [nM]	GI50 (SK-BR-3 cancer cells) [nM]	Structure (SMILES)
< 50	< 50	C=CC(=O)Nc1cc(Nc2cc(N3OCC[C@@H]3c3cccc(-c4ccccc4)c3)ncn2)c(OC)cc1N1CCO[C@@H](C)C1 [Example 175, N-(5-((6-((R)-3-([1,1′-biphenyl]-3-yl)isoxazolidin-2-yl)pyrimidin-4-yl)-amino)-4-methoxy-2-((S)-2-methyl-morpholino)phen-yl)acrylamide]
< 50	< 50	C=CC(=O)Nc1cc(Nc2cc(N3OCCC3c3cccc(-c4cnn(C)c4)c3)ncn2)c(OC)cc1N(C)CCN(C)C (stereo not shown) [Example 233, N-(2-((2-(dimeth-ylamino)ethyl)-(methyl)amino)-4-methoxy-5-((6-(3-(3-(1-methyl-1H-pyrazol-4-yl)phen-yl)isoxazolidin-2-yl)pyrimidin-4-yl)amino)phenyl)-acrylamide]
< 50	< 50	C=CC(=O)Nc1cc(Nc2cc(N3OCC[C@@H]3c3cccc(-c4cc(F)cc(F)c4)c3)ncn2)c(OC)cc1N1CCN(CCC)CC1 [Example 278, (R)-N-(5-((6-(3-(3′,5′-difluoro-[1,1′-biphenyl]-3-yl)isoxazolidin-2-yl)pyrimidin-4-yl)-amino)-4-methoxy-2-(4-propylpiper-azin-1-yl)phenyl)-acrylamide]
